The values below come from patent US8409570B2, “Method of inducing apoptosis using anti-DR5 antibodies” (Genentech, Inc., priority 2005, dated 2013).

In experiment [1] the test system is Colo 205 human colon carcinoma xenografts. The experiment can be described thus: Colo 205 human colon carcinoma xenografts in nude mice, tumor growth delay (Example 8). In kind it is in vivo, mouse. The note with it: endpoint tumor volume 1000 mm^3; for tumor growth delay (TGD): Apo2L.0 60 mg/kg i.p. 5/2/5, Apomab 7.3 3 mg/kg i.v. Days 1, 8, B20-4.1 10 mg/kg i.p. Days 1 and 8; for tumor growth delay (TGD), percentage of control median TTE: same regimens. Here is the method: Xenografts were initiated from cultured Colo 205 human colon carcinoma cells. […] On the day of tumor cell implant, Colo 205 cells were harvested and resuspended in 50% Matrigel matrix (BD Biosciences) in PBS at a concentration of 5×10^6 cells/mL.
The test materials were kept on ice during dosing, and dosing solutions were subsequently stored at 4° C.
Tumors were measured twice weekly using calipers. […] The time to endpoint (TTE) for each mouse was calculated from the following equation: […]
Where b is the intercept and m is the slope of the line obtained by linear regression of a log-transformed tumor growth data set. The data set was comprised of the first observation that exceeded the study endpoint volume and the three consecutive observations that immediately preceded the attainment of the endpoint volume. […] Animals suffering treatment-related death or non-treatment related death due to metastasis were assigned a TTE value equal to the day of death. Animals suffering non-treatment related death or death of unknown causes were excluded from the TTE calculations.
Treatment outcome was evaluated by tumor growth delay (TGD), which is defined as the increase in the median time to endpoint (TTE) in the treatment group compared to the control group: TGD=T−C,
Treatment may cause partial regression (PR) or complete regression (CR) of tumor in an animal In a PR response, the tumor volume is 50% or less of its Day 1 volume for three consecutive measurements during the course of the study, and equal to or greater than 13.5 mm^3 for one or more of these three measurements. In a CR response, the tumor volume is less than 13 5 mm^3 for one or more of these three measurements during the course of the study. An animal with a CR response at the termination of the study is additionally classified as a tumor-free survivor (TFS). Regression responses were monitored and recorded.
The Logrank test was use to analyze the significance of the differences between the TTE values of treated and control groups. Two-tailed statistical analyses were conducted at significance level P=0.05, with results deemed significant at 0.01 P 0.05, and highly significant at P<0.01.
Median tumor growth curves show group median tumor volumes as a function of time.
In general terms: In xenograft studies the graft and the host belong to different species.

Experiment [2] concerns SKMES-1 human NSCLC xenograft. The experiment in a line: SKMES-1 human NSCLC xenograft, tumor growth delay (Example 9). The following applies: for median TTE: 1500 mm^3 endpoint volume, 45-day study, control median TTE 18.9 days; for TGD, % of control / TGD: versus vehicle control; for TGD, % of control: maximum achievable 138%; for TGD: maximum achievable 26.1 days.
From the text: Xenografts were initiated from SKMES-1 lung tumors maintained by serial transplantation at PRC. Each test mouse received a 1 mm^3 SKMES-1 tumor fragment implanted subcutaneously in the right flank, and tumor growth was monitored. Thirteen days later, designated as Day 1 of the study, individual tumor volumes ranged from 63 to 144 mm^3, and the animals were sorted into four groups each consisting of ten mice and two groups each consisting of nine mice. Mean tumor volumes were 93 to 95 mm^3.
All test materials were provided ready to dose at 0.1 mL per 20 g body weight (5 mL/kg), and were stored at −80° C. upon receipt. The test materials were thawed on the first day of dosing, kept on ice during dosing, then subsequently stored at 4° C. Carboplatin ([…] ® injection, Bristol Myers Squibb) was diluted with 5% dextrose in water (D5W) to yield the desired dose in a volume of 0.2 mL per 10 g body weight (10 mL/kg). Paclitaxel (Natural Pharmaceuticals, Inc.) was diluted with D5W on each day of dosing from a 10× stock solution to yield a vehicle consisting of 5% ethanol and 5% Cremophor EL in 90% D5W (5% EC vehicle), so that the desired dose was delivered in 0.1 mL per 20 g body weight.
Group 1 (vehicle control) mice received vehicle administered intraperitoneally once daily for five days (i.p. qd×5), and served as tumor growth controls. […] Each dose was administered in the volume indicated in the previous section, and was scaled to the body weight of the animal.
Experiment [3] has as its system human Colo 205 colon carcinoma xenograft. The experiment in a line: Human Colo 205 carcinoma xenograft model, tumor growth delay (Example 10). The note with it: for TGD: maximum possible 193%, all treatments i.p.; for MTV(n), median tumor volume on Day 61: n = mice remaining on Day 61.
Method: The animals were fed ad libitum water and NIH 31 Modified and Irradiated Lab Diet® consisting of 18.0% crude protein, 5.0% crude fat, and 5.0% crude fiber. The mice were housed on irradiated ALPHA-Dri® Bed-O'Cobs® Laboratory Animal Bedding in static microisolators on a 12-hour light cycle at 21-22° C. and 40-60% humidity.
Human Colo 205 colon carcinoma cells were cultured in RPMI 1640 medium containing 100 units/mL penicillin G sodium, 100 μg/mL streptomycin sulfate, 0.25 μg/mL amphotericin B, and 25 μg/mL gentamicin. The medium was supplemented with 10% heat-inactivated fetal bovine serum, 2 mM glutamine, and 1 mM sodium bicarbonate. The tumor cells were cultured in tissue culture flasks in a humidified incubator at 37° C., in an atmosphere of 5% CO2 and 95% air.
The human Colo 205 carcinoma cells used for implantation were harvested during log phase growth and resuspended in 50% matrigel at 5×10^6 cells/mL. Each mouse was injected s.c. in the right flank with 1×10^6 cells (0.2 mL cell suspension). Tumors were monitored twice weekly and then daily as their volumes approached 100-300 mm^3 On Day 1 of the study, animals were sorted into treatment groups with tumor sizes of 108.0-220.5 mm^3 and a group mean tumor size of 149.8 mm^3 Tumor weight may be estimated with the assumption that 1 mg is equivalent to 1 mm^3 of tumor volume.
The test materials were provided ready for dosing. The dosing solutions were stored at 4° C.
Mice were sorted into six groups with ten mice per group. All treatments were administered intraperitoneally (i.p.).
Apo2L.0 and its vehicle were each administered once daily on Days 1-5 (qd×5). […] Control Group 1 mice were treated with the vehicle for Apo2L.0. […] In all groups, the dosing volume of 0.2 ml/20 g mouse was scaled to the body weight of each animal.
Experiment [4] deals with Colo 205 xenograft. The experiment can be described thus: Colo 205 xenograft model, Apomabs 23.3, 25.3 and 7.3 (Example 7). In kind it is in vivo, mouse. The following applies: single 3 or 10 mg/kg i.v. dose; 25-day data; FIG. 33. How it is done: All mice were ear tagged for identification. […] Group 4 was administered a single 3 mg/kg/mouse i.v. dose of Apomab 23.3. Group 5 was administered a single […] i.v. dose of Apomab 23.3. […] 24 hours post treatment all mice were weighed. Tumors were measured 2×/week for the first 2 weeks and then weekly for the next 4 weeks. After 6 weeks or when the tumors reached a size of >1000 mm^3, the mice were sacrificed.

Experiment [5] concerns Colo 205 human colon carcinoma xenograft. The experiment can be described thus: Colo 205 xenograft athymic nude mouse model (Example 2). In kind it is in vivo. How it is done: All mice were ear-tagged for identification. Once the tumor volume was approximately 100-200 mm^3, the Colo 205 tumor-bearing mice were randomly grouped and treatment was administered.
In some instances, 3 or 4 mice were euthanized from the vehicle and 10 mg/kg groups, and serum and tumors were collected at 5 minutes, 24 hours or 48 hours post treatment for serum drug concentration and tumor histology studies. In the remaining mice, tumor measurements were taken twice a week for the first 2 weeks, then once a week for another 4 weeks.

The test system of experiment [6] is BxPC3 xenograft. The experiment can be described thus: BxPC3 xenograft model of human pancreatic adenocarcinoma. The following applies: Apomab 7.3 10 mg/kg i.v., gemcitabine 160 mg/kg ip; FIG. 29. Format: in vivo, mouse.
In experiment [7] the test system is H2122 xenograft. The experiment can be described thus: H2122 xenograft model of human lung cancer. Format: in vivo, mouse. How it is done:
All mice were ear tagged for identification.
All mice were ear tagged for identification. […] Any mice excluded from the treatment groups were euthanized.
Group A was a vehicle-treated control group (0.5 M arginine succinate, 20 mM Tris, 0.02% Tween 20, pH 7.2). […] 48 hours following the first treatment, three mice from each of Groups B, C and D were euthanized, and their tumors were collected as follows. One tumor was preserved in 10% formalin for histology study. One tumor was frozen in liquid nitrogen for RNA studies. One tumor was frozen in liquid nitrogen for Western blot. Tumor measurements were taken 2×/week for the first 2 weeks then 1×/week for the next 4 weeks.

The test system of experiment [8] is HCT15 xenograft model of colorectal cancer. The experiment can be described thus: HCT15 xenograft model. Format: in vivo, mouse. The following applies: Apomab 7.3 10 mg/kg, CPT-11 80 mg/kg, alone or combined; FIG. 26.
The test system of experiment [9] is Colo205 human colon carcinoma cell line. The experiment in a line: Bioassay: tumor cell growth inhibition/killing (AlamarBlue). The following applies: Apomab framework variants; last column of Table 12. Format: cell-based. How it is done: Bioassay: tumor cell growth inhibition/killing. The apparent potency of each antibody variant was determined in an in vitro tumor cell-killing assay. Colo205 human colon carcinoma cell line was cultured in RPMI medium containing 10% fetal bovine serum. […] Cells (20,000/well) were then added to the plates. The plates were incubated at 37° C. for a total of 48 h. AlamarBlue was added to the wells for the last 3 h of incubation. Fluorescence was read using a fluorometer with excitation at 530 nm and emission of 590 nm. The data were analyzed using a four parameter curve-fitting program.

“Apo2L.0: soluble form of Apo-2 ligand (TRAIL), 114-281 extracellular domain sequence”: in experiment [1], the “tumor growth delay (TGD)” value was found to be 28.4 days and the “tumor growth delay (TGD), percentage of control median TTE” value is listed as 190%. In experiment [2], the “median TTE” value amounted to 22.9 days; the “TGD, % of control” value is recorded as 21%; the TGD is 4.0 days. The “median TTE” value in experiment [3] (1500 mm^3 endpoint volume, 61-day study, control median TTE 20.8 days) is recorded as 53.6 days. In addition, in experiment [3], the TGD was 158% and the “MTV(n), median tumor volume on Day 61” value is 1,210 mm^3. The “LTTFS (long-term tumor-free survivor)” value in [3] (ten mice per group) is recorded as “One”. This compound also displayed a T-C in [3] (versus vehicle control) of 32.8 days.
With “Apomab 7.3: anti-DR5 IgG: heavy chain TH7 (G33A, N53Q, L102Y) + light chain TL3 (Q24S, K51A, R91A); SEQ ID NOS: 18 and 20”, in experiment [1], the “tumor growth delay (TGD)” value worked out at 53.0 days and the “tumor growth delay (TGD), percentage of control median TTE” value was 355%. The anticancer activity result in experiment [4] is listed as “significant anticancer activity”. In experiment [2], the “median TTE” value turned out to be 2.0 days; the “TGD, % of control” value was found to be 38%; the TGD turned out to be 7.1 days. Moreover, the regression responses entry in experiment [2] (mouse, in vivo) is “No regression responses were documented”. The “reversal of efficacy during test period” value in experiment [5] (1 mg/kg and 3 mg/kg doses, 20-day test period, FIG. 23) is on record as “does not show any reversal during the 20-day test period”. The “reduction of tumor volume” value in [5] (1 mg/kg and 3 mg/kg doses, FIG. 23) is on record as “effective in reducing tumor volume”. For the same compound, in experiment [5] (FIG. 24), the “anticancer activity compared with Apomabs 23.3 and 25.3” value is “far exceeded the activity of Apomabs 23.3 and 25.3”. The “reduction of (mean) tumor volume” value in [5] (single intraperitoneal dose 3 or 10 mg/kg, FIGS. 21 and 22, efficacy essentially the same as 16E2 version 1) is on record as “highly efficient in reducing tumor volume”. Moreover, in experiment [6], the anticancer activity result was “far superior to the efficacy of gemcitabine”. Besides, the dose-response efficacy entry in [7] (1, 3 and 10 mg/kg single IV dose, FIG. 32) is recorded as “efficacious in all doses tested”. For the same compound, the “mice with complete response (CR)” value in experiment [7] (6 mice/group, without any reversal during the 70-day treatment period) is listed as “All six”. Besides, in experiment [3], the TGD was 193% and the “MTV(n), median tumor volume on Day 61” value is on record as 776 mm^3. Also, in experiment [3] (ten mice per group), the 61-day survivors result is listed as “six”, the “LTTFS (long-term tumor-free survivor)” value is listed as “One”, the PR responses result is listed as “three” and the “transient CR response” value is given as “one”. Besides, in experiment [8], the anticancer activity result was “effective when administered alone”.
Take “Apomab 18.3: Apomab version with heavy chain framework residues E LVQ K”: in [9], the “Bioassay activity with crosslinking” value is given as “None”.
Same read-out and setting: the same measure for “Apomab 27.3: Apomab version with heavy chain framework residues E VER K”: “none”.
With `CCc1c2c(nc3ccc(OC(=O)N4CCC(N5CCCCC5)CC4)cc13)-c1cc3c(c(=O)n1C2)COC(=O)[C@]3(O)CC` [CPT-11, irinotecan, reference compound], in experiment [8], the anticancer activity result was “effective when administered alone”.
Turning to “Apomab 25.3: Apomab version with heavy chain framework residues Q LVQ K”, in experiment [4], the anticancer activity entry is recorded as “significant anticancer activity”.
